Reference: US20230295068A1, “NOVEL CYCLOALKENONE COMPOUND OR SALT THEREOF” (TAIHO PHARMACEUTICAL CO., LTD., priority 2020, published 2023)

System: ND3 neuronal cell line
Test: Measurement of nerve growth stimulation effect (neurite bearing assay, neurite length assay, number of cells)
Assay type: cell-based
Details: relative cell number, DMSO well = 1; for viability at 1 µM / viability at 3 µM / viability at 5 µM / viability at 10 µM / viability at 30 µM / viability at 100 µM: 6 hours; for Number of cells: ND3 cells, 6 h
Experimental: To evaluate the nerve growth stimulation effect, neurite bearing assay (proportion of neurite-bearing cells) and neurite length assay (neurite length) were analyzed with reference to the method of Topalli et al. (Brain Research 1030 (2004), pp. 116-124).
An ND3 neuronal cell line (European Collection of Authenticated Cell Cultures) was seeded in a DMEM medium containing 10% fetal bovine serum (0.6×10^4 cells/1 mL) in a 24-well plate. 24 hours later, the medium of seeded cells was removed, and a solution in which the compound of the present disclosure that was sequentially diluted in dimethyl sulfoxide (DMSO) was adjusted in DIEM containing 0.1% bovine serum albumin so that the DMSO final concentration was 0.1%, was added to cells (evaluation performed in duplicate). After six hours from the addition, the proportion of neurite-bearing cells (the number of cells having a neurite longer than the diameter of the cell body/number of total cells), and the neurite length per cell were analyzed. The number of total cells, proportion of neurite-bearing cells, and neurite length per cell were analyzed using a MetaMorph Neurite Outgrowth Application Module (Molecular Devices Japan K.K.). The number of cells was defined as the relative cell number, taking the number of cells per well containing DMSO as 1. The relative activity of each compound when the maximum activity of 3-(15-methoxypentadecyl)-2,4,4-trimethylcyclohexa-2-en-1-one (compound 24) in each test was defined as 1 is shown (Table 9). For the compounds for which multiple tests were conducted, the average value was shown. Data with a number of cells of 0.5 or more was also used. Accordingly, if the number of cells was less than 0.5, the neurite length per cell and the proportion of neurite-bearing cells were defined as “-”.

SMILES | viability at 1 µM | viability at 3 µM | viability at 5 µM | viability at 10 µM | viability at 30 µM | viability at 100 µM | Number of cells (1 μM compound) | Number of cells (3 μM compound) | Number of cells (5 μM compound) | Number of cells (10 μM compound) | Number of cells (30 μM compound) | Number of cells (100 μM compound)
CC1=C(CCCCCCCCCCCCOC(C)C)C(C)(C)CCC1=O [Compound 13, 3-(12-isopropoxydodecyl)-2,4,4-trimethylcyclohex-2-en-1-one] | 91% | 87% | 75% | 73% | 34% | 18% |  |  |  |  |  | 
CC1=C(CCCCCCCCCCCCCCCOC(=O)c2ccccc2)C(C)(C)CCC1=O [Compound 53, 15-(2,6,6-trimethyl-3-oxocyclohex-1-en-1-yl)pentadecyl benzoate] | 91% | 95% | 94% | 96% | 105% | 115% |  |  |  |  |  | 
COCCCCCCCCCCCCCCCCC1=C(C)C(=O)CCC1(C)C [Compound 29, 3-(16-methoxyhexadecyl)-2,4,4-trimethylcyclohex-2-en-1-one] | 107% | 98% | 96% | 92% | 97% | 93% |  |  |  |  |  | 
CCOC(=O)OCCCCCCCCCCCCCCCC1=C(C)C(=O)CCC1(C)C [Compound 57, ethyl (15-(2,6,6-trimethyl-3-oxocyclohex-1-en-1-yl)pentadecyl) carbonate] | 96% | 93% | 86% | 90% | 97% | 100% |  |  |  |  |  | 
CCCOCCCCCCCCCCCCCC1=C(C)C(=O)CCC1(C)C [Compound 19, 2,4,4-trimethyl-3-(13-propoxytridecyl)cyclohex-2-en-1-one] | 98% | 105% | 85% | 88% | 111% | 105% |  |  |  |  |  | 
CCOCCCCCCCCCCCCC1=C(C)C(=O)CCC1(C)C [Compound 12, 3-(12-ethoxydodecyl)-2,4,4-trimethylcyclohex-2-en-1-one] | 96% | 90% | 77% | 69% | 11% | 3% |  |  |  |  |  | 
[2H]C([2H])(CCCCCCCCCCCCCCC1=C(C)C(=O)CCC1(C)C)OC [Compound 28, 3-(15-methoxypentadecyl-15,15-d2)-2,4,4-trimethylcyclohex-2-en-1-one] | 92% | 86% | 71% | 68% | 77% | 86% |  |  |  |  |  | 
CCC1=C(CCCCCCCCCCCCCCCOC)C(C)(C)CCC1=O [Compound 60, 2-ethyl-3-(15-methoxypentadecyl)-4,4-dimethylcyclohex-2-en-1-one] | 90% | 91% | 80% | 78% | 34% | 79% |  |  |  |  |  | 
CCCCOCCCCCCCCCCCCC1=C(C)C(=O)CCC1(C)C [Compound 15, 3-(12-butoxydodecyl)-2,4,4-trimethylcyclohex-2-en-1-one] | 93% | 100% | 95% | 88% | 101% | 92% |  |  |  |  |  | 
CCOCCCCCCCCCCCCCCC1=C(C)C(=O)CC1(C)C [Compound 73, 2,4,4-trimethyl-3-(14-ethoxytetradecyl)cyclopent-2-en-1-one] |  |  |  |  |  |  | 0.91 | 0.86 | 0.84 | 0.82 | 0.61 | 0.09
COCCCCCCCCCCCCCCCC1=C(C)C(=O)CCC1 [Compound 38, 3-(15-methoxypentadecyl)-2-methylcyclohex-2-en-1-one] | 96% | 101% | 91% | 86% | 80% | 52% |  |  |  |  |  | 
COCCCCCCCCCCCCCCCC1=C(C)/C(=N/OC)CCC1(C)C [Compound 68, 3-(15-methoxypentadecyl)-2,4,4-trimethylcyclohex-2-en-1-one O-methyloxime] |  |  |  |  |  |  | 0.85 | 0.92 | 0.73 | 0.71 | 0.95 | 0.89
CC1=C(CCCCCCCCCCCCCCCOc2ccccc2)C(C)(C)CCC1=O [Compound 51, 3-(15-phenoxypentadecyl)-2,4,4-trimethylcyclohex-2-en-1-one] | 107% | 103% | 93% | 93% | 96% | 94% |  |  |  |  |  | 
CC1=C(CCCCCCCCCCCCCCCOC(N)=O)C(C)(C)CCC1=O [Compound 35, 15-(2,6,6-trimethyl-3-oxocyclohex-1-en-1-yl)pentadecylcarbamate] | 94% | 94% | 99% | 82% | 16% | 31% |  |  |  |  |  | 
COCCCCCCCCCCCCCCCC1=C(C)C(=O)CC1(C)C [Compound 69, 3-(15-methoxypentadecyl)-2,4,4-trimethylcyclopent-2-en-1-one] |  |  |  |  |  |  | 0.89 | 0.89 | 0.75 | 0.80 | 0.70 | 0.47
COCCCCCCCCCCCCCC1=C(C)C(=O)CCC1(C)C [Compound 16, 3-(13-methoxytridecyl)-2,4,4-trimethylcyclohex-2-en-1-one] | 89% | 88% | 71% | 68% | 69% | 77% |  |  |  |  |  | 
CCCOCCCCCCCCCCCCC1=C(C)C(=O)CCC1(C)C [Compound 14, 2,4,4-trimethyl-3-(12-propoxydodecyl)cyclohex-2-en-1-one] | 98% | 98% | 91% | 95% | 95% | 75% |  |  |  |  |  | 
CC1=C(CCCCCCCCCCCCCCCCO)C(C)(C)CCC1=O [Compound 5, 3-(16-hydroxyhexadecyl)-2,4,4-trimethylcyclohex-2-en-1-one, reference compound] | 111% | 109% | 105% | 83% | 49% | 40% |  |  |  |  |  | 
COCCCCCCCCCCCCCCCC1=C(COC)C(=O)CCC1(C)C [Compound 42, 2-(methoxymethyl)-3-(15-methoxypentadecyl)-4,4-dimethylcyclohex-2-en-1-one] | 86% | 88% | 76% | 83% | 87% | 83% |  |  |  |  |  | 
CC1=C(CCCCCCCCCCCCCCCOC2CCCCO2)C(C)(C)CCC1=O (stereo not drawn) [Compound 6, 2,4,4-trimethyl-3-(15-((tetrahydro-2H-pyran-2-yl)oxy)pentadecyl)cyclohex-2-en-1-one, reference compound] | 97% | 85% | 67% | 64% | 72% | 92% |  |  |  |  |  | 
CC1=C(CCCCCCCCCCCCCCCOC(C)C)C(C)(C)CCC1=O [Compound 26, 3-(15-isopropoxypentadecyl)-2,4,4-trimethylcyclohex-2-en-1-one] | 102% | 100% | 93% | 90% | 98% | 101% |  |  |  |  |  | 
COCCCCCCCCCCCCCCCC1=C(C)C(=NO)CCC1(C)C [Compound 67, 3-(15-methoxypentadecyl)-2,4,4-trimethylcyclohex-2-en-1-one oxime] |  |  |  |  |  |  | 0.92 | 0.89 | 0.80 | 0.75 | 0.94 | 0.93
CCCCOCCCCCCCCCCCCCC1=C(C)C(=O)CCC1(C)C [Compound 20, 3-(13-butoxytridecyl)-2,4,4-trimethylcyclohex-2-en-1-one] | 110% | 110% | 96% | 90% | 113% | 117% |  |  |  |  |  | 
